From the supplement of paper PMC12463676, “Small-molecule dissolution of stress granules by redox modulation benefits ALS models” (Nature Chemical Biology, 2025)

What was measured:
lipoamide = compound: NC(=O)CCCCC1CCSS1 [lipoamide]; experiment: thermal stability z-score vs DMSO; higher = more thermally stabilized by treatment; conditions: HeLa, lipoamide concentration 100 µM
Protocol: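 Cellular thermal proteome profiling in HeLa cells. Cells were treated with 100 µM lipoamide for 1 h, with or without 1 mM arsenate for a further 1 h, then heated to ten temperatures (37-66.3 °C), and soluble protein was quantified by TMT mass spectrometry relative to 0.1% DMSO controls. The thermal stability score (sum of log2 fold changes minus the abundance score) was transformed to a z-score; mean of n = 3 experiments.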

potassium arsenate = compound: O=[As]([O-])(O)O.[K+] [potassium arsenate]; experiment: as above; conditions: HeLa; arsenate concentration 1 mM
Protocol: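 Cellular thermal proteome profiling in HeLa cells treated with 1 mM arsenate for 1 h (DMSO pretreatment), heated to ten temperatures (37-66.3 °C). Soluble protein was quantified by TMT mass spectrometry relative to DMSO controls; the thermal stability score was transformed to a z-score; mean of n = 3 experiments.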

[1] = arsenate co-treatment: 1 mM arsenate 1 h
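Also: each temperature applied for 3 min, abundance score taken as mean log2 fold change at the two lowest temperatures, z-score obtained by mean subtraction and division by SD.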

Sequence of UniProt Q9BU76 (Q9BU76 whole entry): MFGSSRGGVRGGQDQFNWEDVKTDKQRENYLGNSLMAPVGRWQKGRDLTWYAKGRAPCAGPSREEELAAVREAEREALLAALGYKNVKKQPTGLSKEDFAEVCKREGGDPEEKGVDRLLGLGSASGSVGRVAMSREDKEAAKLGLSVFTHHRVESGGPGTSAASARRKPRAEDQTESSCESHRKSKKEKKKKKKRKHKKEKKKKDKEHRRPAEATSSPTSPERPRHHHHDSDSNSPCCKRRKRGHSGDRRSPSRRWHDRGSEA
Sequence of UniProt Q5HYK7 (Q5HYK7 whole entry): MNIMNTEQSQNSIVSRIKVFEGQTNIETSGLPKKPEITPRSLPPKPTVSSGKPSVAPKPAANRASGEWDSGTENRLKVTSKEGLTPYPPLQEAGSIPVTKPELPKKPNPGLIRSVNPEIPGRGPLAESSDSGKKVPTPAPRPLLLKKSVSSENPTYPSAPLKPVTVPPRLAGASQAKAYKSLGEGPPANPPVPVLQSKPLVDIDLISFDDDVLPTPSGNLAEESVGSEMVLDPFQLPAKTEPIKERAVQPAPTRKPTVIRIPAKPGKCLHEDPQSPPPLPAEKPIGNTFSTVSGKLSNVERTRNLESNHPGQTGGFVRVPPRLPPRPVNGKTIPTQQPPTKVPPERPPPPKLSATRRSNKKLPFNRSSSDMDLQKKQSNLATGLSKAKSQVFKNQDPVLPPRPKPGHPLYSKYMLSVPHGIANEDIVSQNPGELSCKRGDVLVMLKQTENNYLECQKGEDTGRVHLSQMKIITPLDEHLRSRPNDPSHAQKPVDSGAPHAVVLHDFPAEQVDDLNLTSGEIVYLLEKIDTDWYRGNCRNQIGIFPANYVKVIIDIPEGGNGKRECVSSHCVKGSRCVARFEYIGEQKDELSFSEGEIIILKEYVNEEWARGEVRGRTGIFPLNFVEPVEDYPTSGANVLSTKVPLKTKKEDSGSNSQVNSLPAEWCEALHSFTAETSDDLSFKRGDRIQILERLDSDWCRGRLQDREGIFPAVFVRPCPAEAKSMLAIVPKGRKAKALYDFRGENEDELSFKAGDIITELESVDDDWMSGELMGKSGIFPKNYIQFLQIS
Sequence of UniProt Q9C0C9 (Q9C0C9 whole entry): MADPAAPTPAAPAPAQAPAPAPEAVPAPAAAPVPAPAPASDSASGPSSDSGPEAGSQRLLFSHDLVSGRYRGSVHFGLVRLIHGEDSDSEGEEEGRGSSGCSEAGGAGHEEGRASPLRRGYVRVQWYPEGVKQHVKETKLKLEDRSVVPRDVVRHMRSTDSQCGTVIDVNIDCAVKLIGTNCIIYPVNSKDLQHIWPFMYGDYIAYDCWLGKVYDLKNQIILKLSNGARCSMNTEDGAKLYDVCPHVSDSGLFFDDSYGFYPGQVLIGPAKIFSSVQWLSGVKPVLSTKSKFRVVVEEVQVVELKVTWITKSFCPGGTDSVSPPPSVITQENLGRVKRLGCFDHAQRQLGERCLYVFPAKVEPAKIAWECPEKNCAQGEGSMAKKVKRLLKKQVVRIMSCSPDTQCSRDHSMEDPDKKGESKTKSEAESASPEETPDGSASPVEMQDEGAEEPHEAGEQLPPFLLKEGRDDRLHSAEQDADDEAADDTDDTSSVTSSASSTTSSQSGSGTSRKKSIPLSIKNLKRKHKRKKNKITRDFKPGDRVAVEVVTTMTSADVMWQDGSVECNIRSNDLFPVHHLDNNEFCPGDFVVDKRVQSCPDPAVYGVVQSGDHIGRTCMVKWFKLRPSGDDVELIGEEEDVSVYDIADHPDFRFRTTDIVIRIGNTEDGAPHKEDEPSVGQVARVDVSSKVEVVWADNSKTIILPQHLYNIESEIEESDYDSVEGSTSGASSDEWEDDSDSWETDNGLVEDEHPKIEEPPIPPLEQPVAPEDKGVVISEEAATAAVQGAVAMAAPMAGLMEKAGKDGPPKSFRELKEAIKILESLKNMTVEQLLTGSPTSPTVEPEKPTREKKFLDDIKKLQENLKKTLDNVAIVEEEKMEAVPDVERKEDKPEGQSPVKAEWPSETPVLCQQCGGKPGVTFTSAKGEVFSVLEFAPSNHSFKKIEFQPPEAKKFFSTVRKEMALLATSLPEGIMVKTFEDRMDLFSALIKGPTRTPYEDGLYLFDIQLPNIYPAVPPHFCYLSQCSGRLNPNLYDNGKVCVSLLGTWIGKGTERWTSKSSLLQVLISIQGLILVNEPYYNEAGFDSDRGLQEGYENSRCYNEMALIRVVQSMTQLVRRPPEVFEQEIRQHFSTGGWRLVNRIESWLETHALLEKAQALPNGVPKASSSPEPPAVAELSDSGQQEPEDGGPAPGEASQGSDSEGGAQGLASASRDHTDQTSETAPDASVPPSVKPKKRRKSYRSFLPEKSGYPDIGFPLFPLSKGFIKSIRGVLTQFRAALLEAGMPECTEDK
Sequence of UniProt Q69YN2 (Q69YN2 whole entry): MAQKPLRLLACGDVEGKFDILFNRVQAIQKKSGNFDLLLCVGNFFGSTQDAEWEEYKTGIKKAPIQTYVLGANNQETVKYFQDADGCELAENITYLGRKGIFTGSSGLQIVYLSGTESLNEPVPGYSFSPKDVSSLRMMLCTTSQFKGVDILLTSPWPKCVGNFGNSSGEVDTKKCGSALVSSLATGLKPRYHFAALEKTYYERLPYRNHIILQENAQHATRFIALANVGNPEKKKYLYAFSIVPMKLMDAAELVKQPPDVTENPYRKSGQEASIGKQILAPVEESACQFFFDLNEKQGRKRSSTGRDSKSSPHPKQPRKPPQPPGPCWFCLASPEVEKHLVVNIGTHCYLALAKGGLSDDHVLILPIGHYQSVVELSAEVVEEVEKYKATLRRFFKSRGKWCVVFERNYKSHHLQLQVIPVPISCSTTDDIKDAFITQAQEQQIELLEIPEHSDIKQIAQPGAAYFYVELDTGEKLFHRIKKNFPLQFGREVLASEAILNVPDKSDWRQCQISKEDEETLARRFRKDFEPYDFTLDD
Sequence of UniProt P57081 (P57081 whole entry): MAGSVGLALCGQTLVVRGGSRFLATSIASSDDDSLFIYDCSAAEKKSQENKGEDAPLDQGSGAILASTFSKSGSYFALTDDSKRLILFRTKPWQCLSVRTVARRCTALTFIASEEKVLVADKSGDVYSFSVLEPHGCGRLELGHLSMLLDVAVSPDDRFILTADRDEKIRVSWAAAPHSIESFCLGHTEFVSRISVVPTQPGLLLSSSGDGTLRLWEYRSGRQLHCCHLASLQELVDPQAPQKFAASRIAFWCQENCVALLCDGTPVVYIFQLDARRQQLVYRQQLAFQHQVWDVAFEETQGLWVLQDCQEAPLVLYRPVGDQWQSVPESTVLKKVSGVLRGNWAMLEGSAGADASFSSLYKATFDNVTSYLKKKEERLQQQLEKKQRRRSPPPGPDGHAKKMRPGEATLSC
Sequence of UniProt Q9Y3Z3 (Q9Y3Z3 whole entry): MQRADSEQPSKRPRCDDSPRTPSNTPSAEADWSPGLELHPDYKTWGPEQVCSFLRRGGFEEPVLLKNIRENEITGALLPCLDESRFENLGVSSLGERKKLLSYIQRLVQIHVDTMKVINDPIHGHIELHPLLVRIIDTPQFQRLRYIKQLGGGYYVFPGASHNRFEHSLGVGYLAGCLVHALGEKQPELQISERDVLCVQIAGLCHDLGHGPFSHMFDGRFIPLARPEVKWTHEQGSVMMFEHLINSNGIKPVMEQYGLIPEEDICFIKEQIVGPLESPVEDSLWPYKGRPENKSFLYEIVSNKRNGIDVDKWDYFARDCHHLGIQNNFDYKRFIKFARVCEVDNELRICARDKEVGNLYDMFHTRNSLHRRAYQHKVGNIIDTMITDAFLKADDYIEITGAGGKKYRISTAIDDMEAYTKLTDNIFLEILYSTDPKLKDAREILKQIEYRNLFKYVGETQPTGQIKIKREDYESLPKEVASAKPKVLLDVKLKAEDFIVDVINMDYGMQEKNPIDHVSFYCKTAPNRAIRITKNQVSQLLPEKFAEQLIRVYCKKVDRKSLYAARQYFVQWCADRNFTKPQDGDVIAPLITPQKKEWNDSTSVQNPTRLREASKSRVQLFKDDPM
Sequence of UniProt P13497 (P13497 whole entry): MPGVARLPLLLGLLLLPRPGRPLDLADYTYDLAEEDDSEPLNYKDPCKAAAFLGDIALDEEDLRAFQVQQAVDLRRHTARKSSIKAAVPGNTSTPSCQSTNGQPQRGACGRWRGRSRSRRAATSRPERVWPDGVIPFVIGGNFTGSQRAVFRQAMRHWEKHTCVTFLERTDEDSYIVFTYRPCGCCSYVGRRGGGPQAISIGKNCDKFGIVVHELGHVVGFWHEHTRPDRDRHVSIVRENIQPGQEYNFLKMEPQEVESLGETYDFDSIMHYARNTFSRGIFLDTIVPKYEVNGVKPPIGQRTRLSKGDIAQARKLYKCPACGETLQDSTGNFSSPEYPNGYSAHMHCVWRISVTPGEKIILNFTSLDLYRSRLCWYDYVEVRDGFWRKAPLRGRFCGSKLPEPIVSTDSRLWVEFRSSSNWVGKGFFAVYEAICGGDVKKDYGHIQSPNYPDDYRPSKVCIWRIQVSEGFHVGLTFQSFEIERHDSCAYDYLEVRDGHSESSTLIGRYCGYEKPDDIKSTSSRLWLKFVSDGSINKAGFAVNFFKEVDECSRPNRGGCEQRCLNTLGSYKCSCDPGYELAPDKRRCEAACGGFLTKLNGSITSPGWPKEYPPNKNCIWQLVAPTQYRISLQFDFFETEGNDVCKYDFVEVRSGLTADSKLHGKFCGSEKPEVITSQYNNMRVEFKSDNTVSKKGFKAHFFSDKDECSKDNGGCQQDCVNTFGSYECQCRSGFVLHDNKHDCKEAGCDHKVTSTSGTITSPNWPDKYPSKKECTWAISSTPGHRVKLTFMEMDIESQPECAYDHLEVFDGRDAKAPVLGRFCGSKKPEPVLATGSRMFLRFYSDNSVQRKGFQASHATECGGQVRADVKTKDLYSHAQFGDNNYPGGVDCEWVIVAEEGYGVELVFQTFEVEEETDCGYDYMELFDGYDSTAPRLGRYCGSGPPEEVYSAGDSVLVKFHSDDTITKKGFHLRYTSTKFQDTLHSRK

SH3D19 (UniProt Q5HYK7) showed a thermal stability z-score (lipoamide; [1]) of 0.277, a thermal stability z-score (lipoamide; arsenate co-treatment: none) of 0.225 and a thermal stability z-score (potassium arsenate) of 0.228.
With MMTAG2 (UniProt Q9BU76) the thermal stability z-score (lipoamide; [1]) was 2.29, the thermal stability z-score (lipoamide; arsenate co-treatment: none) was 0.684 and the thermal stability z-score (potassium arsenate) was 0.188.
In the case of YIPF4 (UniProt Q9BSR8), the thermal stability z-score (lipoamide; [1]) is reported as 0.0431, the thermal stability z-score (lipoamide; arsenate co-treatment: none) is reported as -0.44 and the thermal stability z-score (potassium arsenate) is reported as -0.689.
Work on PDPR (UniProt Q8NCN5) yielded a thermal stability z-score (lipoamide; [1]) of 0.399, a thermal stability z-score (lipoamide; arsenate co-treatment: none) of 0.429 and a thermal stability z-score (potassium arsenate) of -0.181.
For C15ORF38|ARPIN, the thermal stability z-score (lipoamide; [1]) was -0.167, the thermal stability z-score (lipoamide; arsenate co-treatment: none) was 0.382 and the thermal stability z-score (potassium arsenate) was 0.206.
Work on MRPL18 (UniProt Q9H0U6) yielded a thermal stability z-score (lipoamide; [1]) of -0.339, a thermal stability z-score (lipoamide; arsenate co-treatment: none) of -0.0505 and a thermal stability z-score (potassium arsenate) of -0.799.
With SPC24 (UniProt Q8NBT2) the thermal stability z-score (lipoamide; [1]) was -0.122, the thermal stability z-score (lipoamide; arsenate co-treatment: none) was 0.106 and the thermal stability z-score (potassium arsenate) was -0.0105.
GCLC (UniProt P48506) gave a thermal stability z-score (lipoamide; [1]) of 0.874, a thermal stability z-score (lipoamide; arsenate co-treatment: none) of 0.402 and a thermal stability z-score (potassium arsenate) of 1.56.
With TMED7 (UniProt Q9Y3B3) the thermal stability z-score (lipoamide; [1]) was -0.983, the thermal stability z-score (lipoamide; arsenate co-treatment: none) was -0.909 and the thermal stability z-score (potassium arsenate) was 0.0944.
Work on NT5DC3 (UniProt Q86UY8) yielded a thermal stability z-score (lipoamide; [1]) of 0.036, a thermal stability z-score (lipoamide; arsenate co-treatment: none) of -0.0265 and a thermal stability z-score (potassium arsenate) of -0.179.
For WLS (UniProt Q5T9L3), the thermal stability z-score (lipoamide; [1]) was -2.04, the thermal stability z-score (lipoamide; arsenate co-treatment: none) was -1.12 and the thermal stability z-score (potassium arsenate) was 0.0899.
PDE8A (UniProt O60658) was tested, and the thermal stability z-score (lipoamide; [1]) was 0.244, the thermal stability z-score (lipoamide; arsenate co-treatment: none) was 0.225 and the thermal stability z-score (potassium arsenate) was 0.167.
With MTRR (UniProt Q9UBK8) the thermal stability z-score (lipoamide; [1]) was 0.00117, the thermal stability z-score (lipoamide; arsenate co-treatment: none) was -0.531 and the thermal stability z-score (potassium arsenate) was 0.111.
AK6 (UniProt Q9Y3D8) gave a thermal stability z-score (lipoamide; [1]) of -0.665, a thermal stability z-score (lipoamide; arsenate co-treatment: none) of -0.877 and a thermal stability z-score (potassium arsenate) of -2.09.
With TBX3 (UniProt O15119) the thermal stability z-score (lipoamide; [1]) was 0.163, the thermal stability z-score (lipoamide; arsenate co-treatment: none) was -0.0268 and the thermal stability z-score (potassium arsenate) was 0.206.
In the case of WDR4 (UniProt P57081), the thermal stability z-score (lipoamide; [1]) is reported as -0.105, the thermal stability z-score (lipoamide; arsenate co-treatment: none) is reported as -0.0364 and the thermal stability z-score (potassium arsenate) is reported as 0.00243.
AKAP2 gave a thermal stability z-score (lipoamide; [1]) of 1.28, a thermal stability z-score (lipoamide; arsenate co-treatment: none) of 0.638 and a thermal stability z-score (potassium arsenate) of -0.839.
TELO2 (UniProt Q9Y4R8) showed a thermal stability z-score (lipoamide; [1]) of -0.413, a thermal stability z-score (lipoamide; arsenate co-treatment: none) of -0.306 and a thermal stability z-score (potassium arsenate) of 0.208.
With PACSIN3 (UniProt Q9UKS6) the thermal stability z-score (lipoamide; [1]) was 0.00517, the thermal stability z-score (lipoamide; arsenate co-treatment: none) was 0.149 and the thermal stability z-score (potassium arsenate) was -0.842.
MSRB3 (UniProt Q8IXL7) was tested, and the thermal stability z-score (lipoamide; [1]) was 0.866, the thermal stability z-score (lipoamide; arsenate co-treatment: none) was 0.887 and the thermal stability z-score (potassium arsenate) was 0.269.
Work on BMP1 (UniProt P13497) yielded a thermal stability z-score (lipoamide; [1]) of 0.492, a thermal stability z-score (lipoamide; arsenate co-treatment: none) of 0.427 and a thermal stability z-score (potassium arsenate) of 0.347.
For GBE1 (UniProt Q04446), the thermal stability z-score (lipoamide; [1]) was -0.395, the thermal stability z-score (lipoamide; arsenate co-treatment: none) was 0.344 and the thermal stability z-score (potassium arsenate) was -0.956.
Target ZBTB7A (UniProt O95365) has a thermal stability z-score (lipoamide; [1]) of 0.428, a thermal stability z-score (lipoamide; arsenate co-treatment: none) of -0.495 and a thermal stability z-score (potassium arsenate) of -1.13.
FLOT1 (UniProt O75955) was tested, and the thermal stability z-score (lipoamide; [1]) was 1.38, the thermal stability z-score (lipoamide; arsenate co-treatment: none) was 0.653 and the thermal stability z-score (potassium arsenate) was -0.283.
In the case of PRKAR1A (UniProt P10644), the thermal stability z-score (lipoamide; [1]) is reported as -0.101, the thermal stability z-score (lipoamide; arsenate co-treatment: none) is reported as 0.167 and the thermal stability z-score (potassium arsenate) is reported as -0.065.
Target NFYA (UniProt P23511) has a thermal stability z-score (lipoamide; [1]) of 0.401, a thermal stability z-score (lipoamide; arsenate co-treatment: none) of -0.0763 and a thermal stability z-score (potassium arsenate) of -0.528.
Work on ARL2BP (UniProt Q9Y2Y0) yielded a thermal stability z-score (lipoamide; [1]) of -0.0213, a thermal stability z-score (lipoamide; arsenate co-treatment: none) of 0.0527 and a thermal stability z-score (potassium arsenate) of -0.326.
For H6PD (UniProt O95479), the thermal stability z-score (lipoamide; [1]) was -1.51, the thermal stability z-score (lipoamide; arsenate co-treatment: none) was -1.8 and the thermal stability z-score (potassium arsenate) was -0.472.
Target DUSP23 (UniProt Q9BVJ7) has a thermal stability z-score (lipoamide; [1]) of 1.22, a thermal stability z-score (lipoamide; arsenate co-treatment: none) of 0.839 and a thermal stability z-score (potassium arsenate) of -0.0505.
In the case of PIP4K2C (UniProt Q8TBX8), the thermal stability z-score (lipoamide; [1]) is reported as 0.0507, the thermal stability z-score (lipoamide; arsenate co-treatment: none) is reported as 0.12 and the thermal stability z-score (potassium arsenate) is reported as 1.78.
In the case of ARPC2 (UniProt O15144), the thermal stability z-score (lipoamide; [1]) is reported as -0.317, the thermal stability z-score (lipoamide; arsenate co-treatment: none) is reported as -0.205 and the thermal stability z-score (potassium arsenate) is reported as -1.15.
In the case of CWF19L1 (UniProt Q69YN2), the thermal stability z-score (lipoamide; [1]) is reported as -0.381, the thermal stability z-score (lipoamide; arsenate co-treatment: none) is reported as -0.106 and the thermal stability z-score (potassium arsenate) is reported as -0.198.
SMOC1 (UniProt Q9H4F8) gave a thermal stability z-score (lipoamide; [1]) of -0.587, a thermal stability z-score (lipoamide; arsenate co-treatment: none) of -0.458 and a thermal stability z-score (potassium arsenate) of -1.55.
Work on PIR (UniProt O00625) yielded a thermal stability z-score (lipoamide; [1]) of 3.16, a thermal stability z-score (lipoamide; arsenate co-treatment: none) of 2.76 and a thermal stability z-score (potassium arsenate) of -1.25.
Target UBE2O (UniProt Q9C0C9) has a thermal stability z-score (lipoamide; [1]) of 0.0608, a thermal stability z-score (lipoamide; arsenate co-treatment: none) of 0.277 and a thermal stability z-score (potassium arsenate) of 0.509.
In the case of SAMHD1 (UniProt Q9Y3Z3), the thermal stability z-score (lipoamide; [1]) is reported as -0.0165, the thermal stability z-score (lipoamide; arsenate co-treatment: none) is reported as 0.3 and the thermal stability z-score (potassium arsenate) is reported as 0.738.
